Results on 9 compounds are retold here after PubChem BioAssay (NCI).

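1) Cells in 96-well plates. 2) Compound, 48 h, 5 concentrations. 3) Linear interpolation between surrounding doses. 4) Unreached endpoint = highest concentration. GI50 is the concentration that inhibits growth by half. TGI: total growth inhibition.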

Some test systems named below: COLO 205 colon; K-562 leukemia; LOX IMVI melanoma; OVCAR-5 ovarian; OVCAR-8 ovarian; RXF 393 renal; SF-295 CNS; SF-539 CNS; T-47D breast; HOP-92 NSCLC.
What all share (assay): inhibition of tumour cell growth, NCI panel, 48 h

On to `Clc1ccc(-c2c3c(nn2-c2ccccn2)CCc2ccccc2-3)cc1Cl`, for which the GI50 with COLO 205 colon is greater than 100 µM; in the test with K-562 leukemia, greater than 100 µM; in the test on LOX IMVI melanoma, greater than 100 µM; with OVCAR-5 ovarian it was greater than 100 µM; with OVCAR-8 ovarian, greater than 100 µM; in the test on RXF 393 renal, 94.6 µM. For the same compound, the GI50 was 95.2 µM with SF-295 CNS, greater than 100 µM in the test on SF-539 CNS and greater than 100 µM with T-47D breast. The TGI in the test with COLO 205 colon, in the test with K-562 leukemia, in the test on LOX IMVI melanoma, in the test on OVCAR-5 ovarian, with OVCAR-8 ovarian and with RXF 393 renal was greater than 100 µM in each case. In addition, the TGI with SF-295 CNS, with SF-539 CNS and in the test on T-47D breast was greater than 100 µM throughout.

For the compound `CCOC(=O)c1cc2c(cc1Cl)SC(N(c1ccc(OC)cc1)S(=O)(=O)c1ccc(Cl)cc1)=NS2(=O)=O`, the GI50 in the test on COLO 205 colon was 18.4 µM; with HOP-92 NSCLC, 19.1 µM; in the test with K-562 leukemia, 38.6 µM; in the test on LOX IMVI melanoma it was 18.7 µM; in the test on OVCAR-5 ovarian, greater than 100 µM; in the test with SF-295 CNS it was 54.9 µM. For the same compound, the GI50 is 15.1 µM in the test on SF-539 CNS and 12.1 µM in the test on T-47D breast. The TGI is 48.7 µM in the test on COLO 205 colon; 38.6 µM in the test with HOP-92 NSCLC; greater than 100 µM with K-562 leukemia; 38.3 µM with LOX IMVI melanoma; greater than 100 µM in the test with OVCAR-5 ovarian; greater than 100 µM with SF-295 CNS. In addition, the TGI was determined as 31.2 µM with SF-539 CNS and 36.1 µM in the test on T-47D breast.

With `C=C1CCC2C3(C)COC(c4ccccc4)OC3CCC2(C)C1/C=C/C1=CCOC1=O` (configuration not stated), the GI50 is 4.09 µM in the test with COLO 205 colon; 2.31 µM in the test with K-562 leukemia; 1.7 µM in the test on LOX IMVI melanoma; 9.58 µM in the test on OVCAR-5 ovarian; 4.11 µM in the test on OVCAR-8 ovarian; 2.93 µM with RXF 393 renal. Besides, the GI50 is 14.1 µM in the test on SF-295 CNS, 8.71 µM in the test with SF-539 CNS and 19.9 µM in the test on T-47D breast. The TGI in the test with COLO 205 colon is 16.8 µM; with K-562 leukemia, greater than 100 µM; in the test on LOX IMVI melanoma it was 4.25 µM; with OVCAR-5 ovarian, 22 µM; in the test on OVCAR-8 ovarian it was greater than 100 µM; with RXF 393 renal it was 8.65 µM. The TGI in the test on SF-295 CNS was found to be 51.9 µM; with SF-539 CNS, 21.2 µM; in the test with T-47D breast, 69.4 µM.

With `[N-]=[N+]=NC(c1cn(C2CC(O)C(CO)O2)c(=O)[nH]c1=O)C(Cl)I` (configuration not stated), the TGI in the test with COLO 205 colon, with OVCAR-5 ovarian, with OVCAR-8 ovarian, in the test with RXF 393 renal, in the test on SF-295 CNS and in the test with SF-539 CNS was greater than 100 µM in each case. This compound also came in with a TGI with T-47D breast greater than 100 µM.

On to `C[As](C)SCC(COC(=O)C(Cl)c1ccccc1)OC(=O)C(Cl)c1ccccc1` (configuration not stated), for which the GI50 in the test on COLO 205 colon is 1.43 µM; with HOP-92 NSCLC, 0.381 µM; with K-562 leukemia, 0.147 µM; in the test on OVCAR-5 ovarian, 6.69 µM; in the test with OVCAR-8 ovarian, 3.41 µM; in the test with RXF 393 renal it was 0.641 µM. In addition, the GI50 is 7.79 µM with SF-295 CNS, 0.968 µM in the test with SF-539 CNS and 17.1 µM in the test with T-47D breast. Moreover, the TGI is 3.9 µM in the test on HOP-92 NSCLC; greater than 37.2 µM with OVCAR-5 ovarian; greater than 35.2 µM in the test on OVCAR-8 ovarian; 15 µM in the test with RXF 393 renal; 29.1 µM in the test on SF-295 CNS; 3.43 µM in the test with SF-539 CNS. The TGI in the test with T-47D breast is greater than 45.8 µM.

`C[C@@]12CCC[C@@](C)(C(=O)O)C1CC[C@]13C[C@@](O)(CO)[C@](O)(CCC12)C3` (some centres not stated): the GI50 in the test on COLO 205 colon, in the test on K-562 leukemia, in the test with LOX IMVI melanoma, in the test with OVCAR-5 ovarian, with OVCAR-8 ovarian and in the test on RXF 393 renal was greater than 100 µM each time. Besides, the GI50 in the test on SF-295 CNS, in the test with SF-539 CNS and in the test on T-47D breast was greater than 100 µM in each case. Besides, the TGI with COLO 205 colon, in the test on K-562 leukemia, in the test on LOX IMVI melanoma, in the test with OVCAR-5 ovarian, with OVCAR-8 ovarian and with RXF 393 renal was greater than 100 µM in each case. Besides, the TGI with SF-295 CNS, in the test on SF-539 CNS and in the test with T-47D breast was greater than 100 µM throughout.

Turning to `O=Nc1ccc(NO)c2ccccc12`, the GI50 in the test on COLO 205 colon is 14.7 µM; in the test on K-562 leukemia, 16.1 µM; with LOX IMVI melanoma, 2.78 µM; in the test with OVCAR-5 ovarian, 18.6 µM; in the test on OVCAR-8 ovarian, 3.24 µM; with RXF 393 renal it was 11.8 µM. The GI50 was 14.8 µM in the test with SF-295 CNS, 17.1 µM in the test with SF-539 CNS and 3.67 µM with T-47D breast. In addition, the TGI in the test on COLO 205 colon turned out to be 29.3 µM; in the test with K-562 leukemia, 44.6 µM; in the test with LOX IMVI melanoma, 12.1 µM; with OVCAR-5 ovarian it was 35.5 µM; with OVCAR-8 ovarian, 14.6 µM; in the test on RXF 393 renal, 24.2 µM. For the same compound, the TGI in the test on SF-295 CNS came out at 28.6 µM; with SF-539 CNS it was 31.1 µM; in the test with T-47D breast it was 21.4 µM.

As to `O=C(c1ccccc1)C1OC1c1ccc([N+](=O)[O-])cc1` (configuration not stated), the GI50 was 12.9 µM with COLO 205 colon; 1.81 µM in the test with LOX IMVI melanoma; 19.6 µM in the test with OVCAR-5 ovarian; 4.71 µM with OVCAR-8 ovarian; 6.38 µM with RXF 393 renal; 4.76 µM in the test on SF-295 CNS. Moreover, the GI50 is 10.2 µM in the test on SF-539 CNS and 3.9 µM with T-47D breast. The TGI was 30.4 µM in the test with COLO 205 colon; 10.8 µM in the test with LOX IMVI melanoma; 56.9 µM in the test with OVCAR-5 ovarian; greater than 100 µM with OVCAR-8 ovarian; 44.8 µM in the test with RXF 393 renal; 46 µM in the test with SF-295 CNS. Moreover, the TGI in the test with SF-539 CNS amounted to 76.8 µM; in the test with T-47D breast, 71.1 µM.

As to `CCN(CC)c1ccc(C(O)C2=CC(=O)c3ccccc3C2=O)cc1` (configuration not stated), the GI50 in the test with COLO 205 colon was 1.58 µM; in the test on HOP-92 NSCLC it was 0.21 µM; in the test on K-562 leukemia, 0.416 µM; with LOX IMVI melanoma, 1.14 µM; in the test on OVCAR-5 ovarian, 1.94 µM; in the test with SF-295 CNS it was 2.23 µM. The GI50 was 2 µM in the test with SF-539 CNS and 2.69 µM with T-47D breast. Also, the TGI with COLO 205 colon was 3.59 µM; with HOP-92 NSCLC it was 0.942 µM; in the test on LOX IMVI melanoma, 3.66 µM; in the test on OVCAR-5 ovarian, 3.66 µM; in the test with SF-295 CNS, 7.45 µM; in the test on SF-539 CNS it was 4.18 µM. Moreover, the TGI in the test with T-47D breast was greater than 100 µM.
